In patent publication US20200397795A1, “PROPHYLACTIC TREATMENT OF VENOUS THROMBOEMBOLISM” (JANSSEN PHARMACEUTICALS, INC., priority 2019, published 2020):

Assays:
[1] = tested on: events prevented vs bleeding events caused; assay: MARINER benefit-risk analysis (excess number of events per 10,000 subjects); format: in vivo, human
Procedure: The benefit-risk of rivaroxaban versus placebo was evaluated based on the excess number of events between treatments for events intended to be prevented (benefits) and events that were caused (risks).
Although the primary efficacy endpoint was not statistically different between rivaroxaban and placebo, the benefit-risk analyses were conducted to further assess the totality of the data. Based on the ITT analysis set and Up-to-Day 45 analysis phase, for 10,000 subjects treated with rivaroxaban up to 45 days, on average, rivaroxaban would prevent 27 events of the composite of symptomatic VTE and VTE-related death, while causing 12 more major bleeding events than with placebo. […] Therefore, focusing instead on major thrombotic events that were fatal or caused potentially irreversible harm, on average, rivaroxaban would prevent 55 events of the composite of nonfatal PE, MI, non-hemorrhagic stroke, and non-hemorrhagic ACM, while causing 2 more events of the composite of critical site bleeding and fatal bleeding than with placebo.

[2] = tested on: symptomatic VTE and VTE-related death in high-risk, medically ill subjects; assay: MARINER (Study 2): efficacy of rivaroxaban vs placebo for 45 days post-hospital discharge; format: in vivo, human; design: Primary efficacy outcome, absolute difference vs placebo / Primary efficacy outcome, relative risk reduction vs placebo: concentration or dose not given beside the values; details: for Primary efficacy outcome (symptomatic VTE and VTE-related death), n/N (%): CEC adjudicated
Description: The primary objective of Study 2 (MARINER) was to assess the efficacy and safety of rivaroxaban, compared with placebo in the prevention of symptomatic venous thromboembolism (VTE; lower extremity deep vein thrombosis [DVT] and non-fatal pulmonary embolism [PE]) and VTE-related death (death due to PE or death in which PE could not be ruled out as the cause) post-hospital discharge in high-risk, medically ill subjects.
This was a multicenter, prospective, randomized, double-blind, placebo-controlled, event-driven study conducted in multiple geographic regions (North America, South America, Eastern Europe, Western Europe, and Other locations) that evaluated rivaroxaban, compared with placebo, in the prevention of symptomatic VTE events and VTE-related deaths for a period of 45 days post-hospital discharge in high-risk, medically ill subjects. The study consisted of a screening phase, a 45-day double-blind treatment phase, and a 30-day safety follow-up period (which was also the end of study [EOS]). The total duration for a subject who completed the study (including the safety follow-up period) after randomization was 75 (±5) days.
The index hospitalization was at least 3 and no more than 10 consecutive days in duration. […] Subjects received thromboprophylaxis during the index hospitalization with low molecular weight heparin (LMWH) or unfractionated heparin (UFH).
Randomization occurred on the same day or the day after the subject left the hospital, and occurred at the hospital, clinic, or other discharge destination. Eligible subjects were to be randomly assigned (1:1) by strata (by creatinine clearance [CrCl] level [≥30-<50 mL/min versus ≥50 mL/min] and by country) to receive either rivaroxaban or placebo. Subjects with a baseline CrCl of ≥50 mL/min were to receive rivaroxaban 10 mg once daily (QD) or placebo QD. A dose adjustment to rivaroxaban 7.5 mg QD was to be implemented for subjects with a baseline CrCl of ≥30 to <50 mL/min. Study drug started at randomization (Day 1) and continued until Day 45 (inclusive). The subject was assessed 30 days later for safety follow-up.
Criteria for Evaluation: This was a clinical outcomes study. The primary efficacy outcome was the composite of all symptomatic VTE events and VTE-related death from randomization up to Day 45. Secondary efficacy outcomes were: VTE-related death; symptomatic VTE; the composite of symptomatic VTE and ACM; the composite of symptomatic VTE, MI, non-hemorrhagic stroke and CV death; and ACM.
The primary and secondary efficacy outcomes were analyzed based on the time from randomization to the first occurrence in the ITT analysis set and Up-to-Day 45 analysis phase. […] A Cox proportional hazards model, stratified by subjects with CrCl ≥30 to <50 mL/min versus subjects with CrCl ≥50 mL/min, with the treatment (as randomized) as the only covariate was used for each analysis. A 2-sided p-value was reported, and if it was less than the 2-sided alpha of 0.05, then superiority of the study drug was to be declared when the observed survival functions favored rivaroxaban. The point estimate and corresponding 95% confidence interval (CI) for the hazard ratio (HR; rivaroxaban to placebo) were provided based on the Cox proportional hazards model. To control the family-wise type I error rate at alpha of 0.05 (2-sided) in testing for efficacy outcomes, if superiority of rivaroxaban over placebo for the primary efficacy outcome was established, superiority of rivaroxaban over placebo on secondary outcomes was tested sequentially using a closed testing procedure in a hierarchical order, each at alpha of 0.05 (2-sided).

[3] = 10 mg dose stratum, for 10,000 subjects
[4] = for 10,000 subjects treated up to 45 days
[5] = Up-to-Day 45, ITT, listed as rivaroxaban
[6] = as reported by the investigator

## O=C(NC[C@H]1CN(c2ccc(N3CCOCC3=O)cc2)C(=O)O1)c1ccc(Cl)s1 [Rivaroxaban, 5-chloro-N-({(5S)-2-oxo-3-[4-(3-oxo-4-morpholinyl)phenyl]-1,3,oxazolidin-5-yl}methyl)-2-thiophenecarboxamide]
[1]; 10 mg dose stratum
  Additional critical site and fatal bleeding vs placebo: no additional
[1]; [3]
  Events of composite of nonfatal PE, MI, non-hemorrhagic stroke, non-hemorrhagic ACM prevented vs placebo: 63 events
  Events of composite of symptomatic VTE and VTE-related death prevented vs placebo: 33 events
[1]; [4]
  Events of composite of nonfatal PE, MI, non-hemorrhagic stroke, non-hemorrhagic ACM prevented vs placebo: 55 events
  More events of composite of critical site bleeding and fatal bleeding than with placebo: 2 events
[1]; for 10,000 subjects treated up to 45 days, ITT
  Events of composite of symptomatic VTE and VTE-related death prevented vs placebo: 27 events
[1]; human, in vivo
  More major bleeding events caused than with placebo: 12 events
[2]; 7.5 mg dose stratum
  Primary efficacy outcome, HR vs placebo: 1.00
  Primary efficacy outcome, RRR vs placebo: 0%
[2]; 7.5 mg dose stratum, Up-to-Day 45, ITT
  Primary efficacy outcome, incidence: 1.64%
[2]; 10 mg dose stratum
  Primary efficacy outcome, HR vs placebo: 0.67
  Primary efficacy outcome, RRR vs placebo: 33%
[2]; 10 mg dose stratum, Up-to-Day 45, ITT
  Primary efficacy outcome, incidence: 0.65%
[2]; ITT
  Rehospitalization for symptomatic VTE within 30 days after randomization, HR vs placebo: 0.50
  Rehospitalization for symptomatic VTE within 30 days after randomization, incidence: 0.15%
[2]; Up-to-Day 45, ITT
  ACM, event rate: 1.19 100 pt-45 dy
  ACM, hazard ratio (95% CI) vs placebo: 0.80 (0.58, 1.09)
  Composite of symptomatic VTE and ACM, RRR vs placebo: 27%
  Composite of symptomatic VTE and ACM, absolute difference vs placebo: 0.48%
  Composite of symptomatic VTE and ACM, event rate: 1.31 100 pt-45 dy
  Composite of symptomatic VTE and ACM, hazard ratio (95% CI) vs placebo: 0.73 (0.54, 0.97)
  Composite of symptomatic VTE and ACM, n/N (%): 78/6007 (1.30) %
  Composite of symptomatic VTE, MI, non-hemorrhagic stroke and CV death, event rate: 1.58 100 pt-45 dy
  Composite of symptomatic VTE, MI, non-hemorrhagic stroke and CV death, hazard ratio (95% CI) vs placebo: 0.78 (0.60, 1.02)
  Composite of symptomatic VTE, MI, non-hemorrhagic stroke and CV death, n/N (%): 94/6007 (1.56) %
  Death (PE cannot be ruled out), event rate: 0.67 100 pt-45 dy
  Death (PE cannot be ruled out), hazard ratio (95% CI) vs placebo: 0.98 (0.63, 1.51)
  Death (PE cannot be ruled out), n/N (%): 40/6007 (0.67) %
  Death (PE), event rate: 0.05 100 pt-45 dy
  Death (PE), hazard ratio (95% CI) vs placebo: 0.60 (0.14, 2.51)
  Death (PE), n/N (%): 3/6007 (0.05) %
  MI, HR vs placebo: 1.36
  MI, incidence: 0.25%
  Non-hemorrhagic stroke, HR vs placebo: 0.63
  Non-hemorrhagic stroke, incidence: 0.32%
  Primary efficacy outcome, absolute difference vs placebo: 0.27%
  Primary efficacy outcome, event rate: 0.84 100 pt-45 dy
  Primary efficacy outcome, hazard ratio (95% CI) vs placebo: 0.76 (0.52, 1.09)
  Primary efficacy outcome, relative risk reduction vs placebo: 24%
  Symptomatic VTE (lower extremity DVT and non-fatal PE), n/N (%): 11/6007 (0.18) %
  Symptomatic VTE, RRR vs placebo: 56%
  Symptomatic VTE, absolute difference vs placebo: 0.24%
  Symptomatic VTE, event rate: 0.19 100 pt-45 dy
  Symptomatic VTE, hazard ratio (95% CI) vs placebo: 0.44 (0.22, 0.89)
  Symptomatic lower extremity DVT, RRR vs placebo: 69%
  Symptomatic lower extremity DVT, absolute difference vs placebo: 0.15%
  Symptomatic lower extremity DVT, event rate: 0.07 100 pt-45 dy
  Symptomatic lower extremity DVT, hazard ratio (95% CI) vs placebo: 0.31 (0.10, 0.94)
  Symptomatic lower extremity DVT, n/N (%): 4/6007 (0.07) %
  Symptomatic non-fatal PE, event rate: 0.12 100 pt-45 dy
  Symptomatic non-fatal PE, hazard ratio (95% CI) vs placebo: 0.47 (0.19, 1.14)
  Symptomatic non-fatal PE, n/N (%): 7/6007 (0.12) %
  Symptomatic upper extremity DVT, number (and incidence): no subject
  VTE-related death, event rate: 0.72 100 pt-45 dy
  VTE-related death, hazard ratio (95% CI) vs placebo: 0.93 (0.62, 1.42)
  VTE-related death, n/N (%): 43/6007 (0.72) %
  Primary efficacy outcome (symptomatic VTE and VTE-related death), n/N (%): 50/6007 (0.83) %
[2]; [5]
  Primary efficacy outcome (symptomatic VTE and VTE-related death), n/N (%): 0.83%
  ACM, hazard ratio (95% CI) vs placebo: 0.80
  ACM, n/N (%): 1.18%
  Composite of symptomatic VTE and ACM, hazard ratio (95% CI) vs placebo: 0.73
  Composite of symptomatic VTE and ACM, n/N (%): 1.30%
  Composite of symptomatic VTE, MI, non-hemorrhagic stroke and CV death, hazard ratio (95% CI) vs placebo: 0.78
  Composite of symptomatic VTE, MI, non-hemorrhagic stroke and CV death, n/N (%): 1.56%
  Primary efficacy outcome, hazard ratio (95% CI) vs placebo: 0.76
  Symptomatic VTE (lower extremity DVT and non-fatal PE), n/N (%): 0.18%
  Symptomatic VTE, hazard ratio (95% CI) vs placebo: 0.44
  Symptomatic lower extremity DVT, hazard ratio (95% CI) vs placebo: 0.31
  Symptomatic lower extremity DVT, n/N (%): 0.07%
  Symptomatic non-fatal PE, hazard ratio (95% CI) vs placebo: 0.47
  Symptomatic non-fatal PE, n/N (%): 0.12%
  VTE-related death, hazard ratio (95% CI) vs placebo: 0.93
  VTE-related death, n/N (%): 0.72%
[2]; [6]
  Primary efficacy outcome, HR vs placebo: 0.40
  Primary efficacy outcome, RRR vs placebo: 60%
  Primary efficacy outcome, absolute difference vs placebo: 0.37%
[2]; as reported by the investigator (post-hoc sensitivity analysis)
  Primary efficacy outcome, incidence: 0.25%
